Measurements published in US20080139614A1, “Treatment Of Stroke With Histamine H3 Inverse Agonists Or Histamine H3 Antagonists” (priority 2004, published 2008).

Tested on: harmaline-induced tremor
Assay: harmaline-induced tremor model in rats
Type: in vivo
Description: The identification of a compound as a histamine H3 inverse agonist or a histamine H3 antagonist may be readily determined without undue experimentation by methodology well known in the art. The efficacy of a histamine H3 inverse agonist or a histamine H3 antagonist in treating stroke may be readily determined without undue experimentation by methodology well known in the art, for example the harmaline-induced tremor model in rats, Sinton, et al., Pflugers Archive Eur. J. Phys., 414(1) 31-36 (1989). […] The ability of the histamine H3 inverse agonist or histamine H3 antagonist to be used in the present invention to treat stroke may be determined by these methods.

N#Cc1ccc(-c2cnc(OC3CCN(C4CCCC4)CC3)nc2)cc1 [2-(1-cyclopentylpiperidine-4-yloxy)-5-(4-cyanophenyl)pyrimidine]
reversal of harmaline-induced tremor (dose of 1 mg/kg): 8.4% | reversal of harmaline-induced tremor (dose of 3 mg/kg): 63.3% | reversal of harmaline-induced tremor (dose of 10 mg/kg): 84.4%
